Values of other authors as cited in patent US20050090518A1 (Nastech Pharmaceutical Company Inc., priority 2003, published 2005).

Details: intranasal administration

CN1CCc2cccc3c2[C@H]1Cc1ccc(O)c(O)c1-3 [Apomorphine]
abolition of "off state" events: 95% | duration of efficacy: less than one | onset of action: 10 min
